Like-named read-outs stand apart in the source and are kept apart here.
What was measured:
SPM-1 = SPM-1 (Pseudomonas aeruginosa, UniProt Q8G9Q0); experiment: SPM-1 inhibition, fluorogenic cephalosporin (FC5) hydrolysis; type: biochemical; conditions: for remaining activity at 100 µM: read-out: % Residual activity versus SPM-1
Procedure: (§1) Inhibition analyses against bacterial MBLs and SBLs were performed as described previously.[22], [24], [26] Residual enzyme activities were determined for a range of inhibitor concentrations. Non-linear regression fitting of IC50 curves was carried out using a three-parameter dose–response curve in GraphPad Prism. Errors in IC50 values are expressed as: σ(logIC50)/logIC50×IC50
(§2) We first screened the inhibitors against a representative set of presently clinically important and other MBLs[22], comprising both Class B1 enzymes (NDM-1, New Delhi MBL-1; VIM-2, Verona integron–encoded MBL-2; BcII, Bacillus cereus II MBL; SPM-1, São Paulo MBL-1; IMP-1, imipenemase MBL-1) and the Class B2 MBL CphA (carbapenem hydrolysing MBL from Aeromonas hydrophila).[22] The latter MBL (CphA) only utilises one active site Zn(II) ion in catalysis, whilst the others normally use two Zn(II) ions.
Figure S5: IC50 curves for SPM-1 inhibition time courses. Residual activities were calculated from the
(§3) initial rate of FC5 hydrolysis after incubation of the enzyme with the inhibitor for 10 minutes. […]

IMP-1 = molecular target: T1, IMP-1 (Serratia marcescens, UniProt P52699); experiment: IMP-1 inhibition, fluorogenic cephalosporin (FC5) hydrolysis; type: biochemical; conditions: for remaining activity at 100 µM: read-out: % Residual activity versus IMP-1
T1 construct: made in house
Procedure: as §1, §2
Figure S3: IC50 curves for IMP-1 inhibition time courses. Residual activities were calculated from the
initial rate of FC5 hydrolysis after incubation of the enzyme with the inhibitor for 10 minutes.

BcII = molecular target: T2, BcII (Bacillus cereus, UniProt P04190); experiment: biochemical; conditions: for remaining activity at 100 µM: read-out: % Residual activity versus BcII
T2 construct: made in house
Procedure: as §1, §2
Figure S2: IC50 curves for BcII inhibition time courses. Residual activities were calculated from the initial
rate of FC5 hydrolysis after incubation of the enzyme with the inhibitor for 10 minutes. […]

VIM-2 = molecular target: T3, VIM-2 (Escherichia coli, UniProt Q5U7L7); experiment: biochemical; conditions: for remaining activity at 100 µM: read-out: % Residual activity versus VIM-2
T3 construct: made in house
Procedure: as §1
as §2, with “ions. We also screened the inhibitors against a representative panel of SBLs from different classes (TEM-1, Temoneira β-lactamase-1, class A; CTX-M-15, cefotaxime hydrolysing β-lactamase from Munich 15, class A, extended spectrum β-lactamase (ESBL); AmpC E. coli, class C, and OXA-10, oxacillinase-10, class D).” for “ions.”
Figure S6: IC50 curves for VIM-2 inhibition time courses. Residual activities were calculated from the
as §3

NDM-1 = molecular target: T4, NDM-1 (Klebsiella pneumoniae, UniProt C7C422); experiment: NDM-1 inhibition, fluorogenic cephalosporin (FC5) hydrolysis; type: biochemical; conditions: for remaining activity at 100 µM: read-out: % Residual activity versus NDM-1
T4 construct: made in house
Procedure: as §1, §2
Figure S4: IC50 curves for NDM-1 inhibition time courses. Residual activities were calculated from the
as §3

[1] = test system: MBLs (SPM-1, IMP-1, BcII, VIM-2, NDM-1); type: biochemical; conditions: for MBL inhibition, result in words: at 100 µM
Procedure: as §1
as §2, with “ions. We also screened the inhibitors against a representative panel of SBLs from different classes (TEM-1, Temoneira β-lactamase-1, class A; CTX-M-15, cefotaxime hydrolysing β-lactamase from Munich 15, class A, extended spectrum β-lactamase (ESBL); AmpC E. coli, class C, and OXA-10, oxacillinase-10, class D).” for “ions.”

CphA = molecular target: T5, CphA (Aeromonas hydrophila, UniProt P26918); experiment: CphA (subclass B2 MBL) inhibition; type: biochemical
T5 construct: made in house
Procedure: as §1
as §2, with “ions. We also screened the inhibitors against a representative panel of SBLs from different classes (TEM-1, Temoneira β-lactamase-1, class A; CTX-M-15, cefotaxime hydrolysing β-lactamase from Munich 15, class A, extended spectrum β-lactamase (ESBL); AmpC E. coli, class C, and OXA-10, oxacillinase-10, class D).” for “ions.”

TEM-1 = molecular target: T6, TEM-1 (Escherichia coli, UniProt P62593); experiment: SBL inhibition, TEM-1; type: biochemical; conditions: read-out: residual activity TEM-1
T6 construct: made in house
Procedure: as §1
as §2, with “ions. We also screened the inhibitors against a representative panel of SBLs from different classes (TEM-1, Temoneira β-lactamase-1, class A; CTX-M-15, cefotaxime hydrolysing β-lactamase from Munich 15, class A, extended spectrum β-lactamase (ESBL); AmpC E. coli, class C, and OXA-10, oxacillinase-10, class D).” for “ions.”
(§4) Figure S1. Residual activities of serine-β-lactamases (SBLs) upon inhibition by rhodanines and enethiols at
(§5) Inhibition of intact rhodanine on a panel of SBLs
(§6) Inhibition of intact rhodanine amide on a panel […]

CTX-M-15 = molecular target: T7, CTX-M-15 (Escherichia coli, UniProt Q9EXV5); experiment: SBL inhibition, CTX-M-15; type: biochemical; conditions: read-out: residual activity CTX-M-15
T7 construct: made in house
Procedure: as §1
as §2, with “ions. We also screened the inhibitors against a representative panel of SBLs from different classes (TEM-1, Temoneira β-lactamase-1, class A; CTX-M-15, cefotaxime hydrolysing β-lactamase from Munich 15, class A, extended spectrum β-lactamase (ESBL); AmpC E. coli, class C, and OXA-10, oxacillinase-10, class D).” for “ions.”
as §4, §5, §6

AmpC = molecular target: T8, AmpC (Escherichia coli, UniProt P00811); experiment: SBL inhibition, AmpC; type: biochemical, E. coli; conditions: read-out: residual activity AmpC
T8 construct: made in house
Procedure: as §1
as §2, with “ions. We also screened the inhibitors against a representative panel of SBLs from different classes (TEM-1, Temoneira β-lactamase-1, class A; CTX-M-15, cefotaxime hydrolysing β-lactamase from Munich 15, class A, extended spectrum β-lactamase (ESBL); AmpC E. coli, class C, and OXA-10, oxacillinase-10, class D).” for “ions.”
as §4, §5, §6

OXA-10 = molecular target: T9, OXA-10 (Pseudomonas aeruginosa, UniProt P14489); experiment: SBL inhibition, OXA-10; type: biochemical; conditions: read-out: residual activity OXA-10
T9 construct: made in house
Procedure: as §1
as §2, with “ions. We also screened the inhibitors against a representative panel of SBLs from different classes (TEM-1, Temoneira β-lactamase-1, class A; CTX-M-15, cefotaxime hydrolysing β-lactamase from Munich 15, class A, extended spectrum β-lactamase (ESBL); AmpC E. coli, class C, and OXA-10, oxacillinase-10, class D).” for “ions.”
as §4, §5, §6

[2] = enethiols 6 assayed as sodium salts, 10 min incubation, read-out: IC50 SPM-1 (converted)
[3] = enethiols 6 assayed as sodium salts, 10 min incubation, read-out: IC50 IMP-1 (converted)
[4] = enethiols 6 assayed as sodium salts, 10 min incubation, read-out: IC50 BcII (converted)
[5] = enethiols 6 assayed as sodium salts, 10 min incubation, read-out: IC50 VIM-2 (converted)
[6] = enethiols 6 assayed as sodium salts, 10 min incubation, read-out: IC50 NDM-1
[7] = lower end of the range, read-out: IC50 values from (lowest across the MBL panel)
[8] = Table 2, read-out: IC50 versus SPM-1
[9] = Table 2, read-out: IC50 versus BcII

Chain of SPM-1 (Q8G9Q0 entry or part of it): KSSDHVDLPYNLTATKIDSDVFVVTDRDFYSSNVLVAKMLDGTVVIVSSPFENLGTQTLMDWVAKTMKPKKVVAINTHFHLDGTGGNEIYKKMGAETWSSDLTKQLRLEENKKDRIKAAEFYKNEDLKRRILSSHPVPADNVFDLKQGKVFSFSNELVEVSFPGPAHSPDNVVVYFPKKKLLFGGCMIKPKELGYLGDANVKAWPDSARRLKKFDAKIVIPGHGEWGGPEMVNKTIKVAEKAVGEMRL
T5 sequence (P26918 28-254): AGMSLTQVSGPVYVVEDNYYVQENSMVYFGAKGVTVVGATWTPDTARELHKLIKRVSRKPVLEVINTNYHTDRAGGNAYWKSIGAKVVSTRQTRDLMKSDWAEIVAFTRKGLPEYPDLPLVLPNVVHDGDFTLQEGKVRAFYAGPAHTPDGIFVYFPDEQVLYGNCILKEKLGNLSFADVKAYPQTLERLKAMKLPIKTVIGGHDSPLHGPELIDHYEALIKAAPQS
T4 sequence (C7C422 29-270, looked up, species assumed): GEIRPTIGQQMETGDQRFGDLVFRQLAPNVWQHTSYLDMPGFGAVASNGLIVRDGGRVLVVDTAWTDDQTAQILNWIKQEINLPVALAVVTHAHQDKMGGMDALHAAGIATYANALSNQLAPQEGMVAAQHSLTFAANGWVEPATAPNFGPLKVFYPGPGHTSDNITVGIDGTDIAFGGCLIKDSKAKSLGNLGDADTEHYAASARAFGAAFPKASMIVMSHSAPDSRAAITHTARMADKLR
T1 sequence (P52699 19-246, looked up, species assumed): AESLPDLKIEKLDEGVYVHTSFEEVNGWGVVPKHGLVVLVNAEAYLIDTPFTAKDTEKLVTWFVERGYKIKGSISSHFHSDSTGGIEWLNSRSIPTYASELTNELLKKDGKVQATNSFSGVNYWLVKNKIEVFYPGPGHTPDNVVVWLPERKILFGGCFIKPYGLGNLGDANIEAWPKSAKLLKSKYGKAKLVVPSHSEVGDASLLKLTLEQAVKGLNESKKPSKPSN
T2 sequence (P04190 31-257): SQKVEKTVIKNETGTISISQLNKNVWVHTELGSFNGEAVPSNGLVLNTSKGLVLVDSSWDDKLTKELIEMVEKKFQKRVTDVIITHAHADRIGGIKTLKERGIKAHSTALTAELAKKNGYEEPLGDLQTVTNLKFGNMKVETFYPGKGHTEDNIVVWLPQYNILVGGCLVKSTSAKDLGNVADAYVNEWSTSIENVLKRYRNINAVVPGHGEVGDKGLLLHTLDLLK
T9 sequence (P14489 20-266, species assumed): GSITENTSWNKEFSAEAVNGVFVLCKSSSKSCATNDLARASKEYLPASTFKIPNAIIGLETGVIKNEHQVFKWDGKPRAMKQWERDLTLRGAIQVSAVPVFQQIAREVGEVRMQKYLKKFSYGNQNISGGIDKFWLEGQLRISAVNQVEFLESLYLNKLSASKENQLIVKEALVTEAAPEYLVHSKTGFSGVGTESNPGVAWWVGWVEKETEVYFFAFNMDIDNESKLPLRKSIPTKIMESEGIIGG
T6 sequence (P62593 24-286 limits assumed): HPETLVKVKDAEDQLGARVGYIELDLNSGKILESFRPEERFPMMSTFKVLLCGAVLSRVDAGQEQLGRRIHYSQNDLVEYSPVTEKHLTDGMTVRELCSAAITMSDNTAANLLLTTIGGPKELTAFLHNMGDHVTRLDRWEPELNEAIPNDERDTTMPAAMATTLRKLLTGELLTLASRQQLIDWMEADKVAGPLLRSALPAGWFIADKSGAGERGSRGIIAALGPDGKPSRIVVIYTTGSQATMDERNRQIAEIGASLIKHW
T7 sequence (Q9EXV5 29-291, species assumed): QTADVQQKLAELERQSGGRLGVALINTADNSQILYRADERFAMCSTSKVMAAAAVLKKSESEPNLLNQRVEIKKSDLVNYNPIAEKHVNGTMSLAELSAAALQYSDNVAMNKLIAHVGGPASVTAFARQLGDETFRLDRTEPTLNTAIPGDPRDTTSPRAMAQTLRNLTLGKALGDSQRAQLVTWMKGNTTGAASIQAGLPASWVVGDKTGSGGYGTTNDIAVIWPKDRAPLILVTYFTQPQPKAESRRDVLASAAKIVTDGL
T8 sequence (P00811 20-377): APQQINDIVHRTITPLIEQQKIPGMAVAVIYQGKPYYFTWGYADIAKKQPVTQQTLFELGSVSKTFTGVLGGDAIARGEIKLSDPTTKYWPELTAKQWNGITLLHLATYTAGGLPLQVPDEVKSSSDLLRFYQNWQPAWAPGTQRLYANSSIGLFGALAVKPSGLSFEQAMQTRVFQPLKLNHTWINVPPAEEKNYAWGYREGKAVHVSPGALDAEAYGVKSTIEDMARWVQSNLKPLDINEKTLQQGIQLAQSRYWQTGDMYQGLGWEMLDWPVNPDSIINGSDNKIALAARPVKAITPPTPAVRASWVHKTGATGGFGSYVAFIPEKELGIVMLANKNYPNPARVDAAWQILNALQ

Structure (SMILES): CC1=N/C(=C\c2ccc(F)cc2)C(=O)O1 [Compound 16]
- remaining activity at 100 µM (SPM-1; at 100 µM): 87 ± 1%
- remaining activity at 100 µM (IMP-1; at 100 µM): 100%
- remaining activity at 100 µM (BcII; at 100 µM): 92 ± 2%
- remaining activity at 100 µM (VIM-2; at 100 µM): 100%
- remaining activity at 100 µM (NDM-1; at 100 µM): 97 ± 2%
- MBL inhibition, result in words [1]: near inactive

Structure (SMILES): CN1CCN(NC(=O)CN2C(=O)/C(=C/c3c(Cl)ccc(Cl)c3Cl)SC2=S)CC1 [ML302, reference compound]
- IC50 (SPM-1; [2]): 0.1 µM
- fold less active than ML302F, SPM-1 (SPM-1; ratio of IC50 values): ~5 fold
- IC50 (IMP-1; [3]): 0.09 µM
- IC50 (BcII; [4]): 0.3 µM
- fold less active than ML302F, BcII (BcII; ratio of IC50 values): ~4 fold
- IC50 (VIM-2; [5]): 0.06 µM
- IC50 (NDM-1; [6]): 15.6 µM
- fold less active than ML302F, NDM-1 (NDM-1; ratio of IC50 values): ~15 fold
- IC50 (CphA; read-out: IC50 CphA): > 50 µM

Structure (SMILES): O=C(O)/C(S)=C/c1c(Cl)cccc1Cl [Compound 6m]
- IC50 (SPM-1; [2]): 0.01 µM
- IC50 (IMP-1; [3]): 0.01 µM
- IC50 (BcII; [4]): 0.07 µM
- IC50 (VIM-2; [5]): 0.03 µM
- IC50 (NDM-1; [6]): 0.6 µM
- IC50 (CphA): 0.8 ± 0.02 µM
- IC50 [1, 7]: 0.01 µM

Structure (SMILES): O=C(O)C(S)c1ccccc1 (centres unmarked) [Compound 13a]
- IC50 (SPM-1; [8]): 0.05 ± 0.001 µM
- IC50 (IMP-1): 0.07 ± 0.003 µM
- IC50 (BcII; read-out: IC50 versus BcII): 0.1 µM
- IC50 (VIM-2): 0.04 ± 0.001 µM
- IC50 (NDM-1): 12.9 ± 1 µM
- IC50 (CphA; Table 2, read-out: IC50 versus CphA): 71 ± 1 µM

Structure (SMILES): O=C(O)/C(S)=C/c1cc(Cl)ccc1Cl [Compound 6o]
- IC50 (SPM-1; [2]): 0.8 µM
- IC50 (IMP-1; [3]): 4.7 µM
- IC50 (BcII; [4]): 1.6 µM
- IC50 (VIM-2; [5]): 1.5 µM
- IC50 (NDM-1; [6]): 45.3 µM
- IC50 [1, 7]: 0.8 µM

Structure (SMILES): CN1CCN(NC(=O)CN2C(=O)/C(=C/c3c(F)ccc(F)c3F)SC2=S)CC1 [Compound 5k]
- IC50 (SPM-1; [2]): 1.5 µM
- IC50 (IMP-1; [3]): 1.6 µM
- IC50 (BcII; [4]): 3.5 µM
- IC50 (VIM-2; [5]): 2.6 µM
- IC50 (NDM-1; [6]): 40.1 µM
- IC50 ([1]; SPM-1, IMP-1, BcII, VIM-2, read-out: IC50 values for all the tested B1 subclass MBLs, with the exception of NDM-1): < 3.5 µM

Structure (SMILES): O=C(O)/C(O)=C/c1ccc(F)cc1 [Compound 17]
- remaining activity at 100 µM (SPM-1; at 100 µM): 93 ± 2%
- remaining activity at 100 µM (IMP-1; at 100 µM): 100%
- remaining activity at 100 µM (BcII; at 100 µM): 90 ± 3%
- remaining activity at 100 µM (VIM-2; at 100 µM): 100%
- remaining activity at 100 µM (NDM-1; at 100 µM): 97 ± 4%
- MBL inhibition, result in words [1]: near inactive

Structure (SMILES): Cc1cccc(C)c1/C=C(\S)C(=O)O [Compound 6q]
- IC50 (SPM-1; [2]): 0.02 µM
- IC50 (IMP-1; [3]): 0.02 µM
- IC50 (BcII; [4]): 0.2 µM
- IC50 (VIM-2; [5]): 0.07 µM
- IC50 (NDM-1; [6]): 4.9 µM
- IC50 [1, 7]: 0.02 µM
- IC50 ([1]; upper end of the range, read-out: IC50 values to (highest across the MBL panel)): 4.9 µM

Structure (SMILES): O=C(O)C(O)Cc1ccccc1 (centres unmarked) [3-Phenyllactic acid, reference compound]
- IC50 (SPM-1; [8]): > 100 µM
- IC50 (IMP-1): > 100 µM
- IC50 (BcII; [9]): > 100 µM
- IC50 (VIM-2): > 100 µM
- IC50 (NDM-1): > 100 µM
- IC50 (CphA): > 100 µM
- MBL inhibition, result in words [1]: inactive

Structure (SMILES): CN1CCN(NC(=O)CN2C(=O)/C(=C/c3ccccc3)SC2=S)CC1 [Compound 5a]
- IC50 (SPM-1; [2]): > 50 µM
- IC50 (IMP-1; [3]): 22.7 µM
- IC50 (BcII; [4]): > 50 µM
- IC50 (VIM-2; [5]): 16.4 µM
- IC50 (NDM-1; [6]): 26.7 µM
- IC50 (CphA): > 50 µM

Structure (SMILES): CN1CCN(NC(=O)CN2C(=O)/C(=C/c3c4ccccc4cc4ccccc34)SC2=S)CC1 [Compound 5r]
- remaining activity at 200 µM (TEM-1): ~6%
- remaining activity at 200 µM (CTX-M-15): ~40%
- remaining activity at 200 µM (AmpC): ~18%
- remaining activity at 200 µM (OXA-10): ~47%

Structure (SMILES): O=P(O)(O)C(S)c1ccc(Br)cc1F (centres unmarked) [Compound 26]
- remaining activity at 100 µM (SPM-1): 95 ± 6%
- remaining activity at 100 µM (IMP-1): 100%
- remaining activity at 100 µM (BcII): 100%
- remaining activity at 100 µM (VIM-2): 100%
- remaining activity at 100 µM (NDM-1): 96 ± 3%
- MBL inhibition, result in words [1]: inactive

Structure (SMILES): O=C(O)C(O)c1ccccc1 (centres unmarked) [Mandelic acid, reference compound]
- IC50 (SPM-1; [8]): > 100 µM
- IC50 (IMP-1): > 100 µM
- IC50 (BcII; [9]): > 100 µM
- IC50 (VIM-2): > 100 µM
- IC50 (NDM-1): > 100 µM
- IC50 (CphA): > 100 µM
- MBL inhibition, result in words [1]: inactive

Reference: PMC6008492, “Structure activity relationship studies on rhodanines and derived enethiol inhibitors of metallo-β-lactamases” (Bioorganic & Medicinal Chemistry, 2018)
